For two compounds, Activity and Time results are on record in ChEMBL document CHEMBL4359901, “Cyclic enaminone as new chemotype for selective cyclooxygenase-2 inhibitory, anti-inflammatory, and analgesic activities” (Eur J Med Chem, 2019).

Data set [1] concerns Rattus norvegicus. As to the kind of experiment: Antiinflammatory activity in Wistar albino rat assessed as reduction in carrageenan-induced paw edema at 25 mg/kg, ip measured after 1 hr by plethysmometric method (reference value: 1.43 +/- 0.19 ml). Format: functional. (The carrageenan paw model is a standard test of acute inflammation.)
Data set [2] deals with Rattus norvegicus. Put plainly: Antiinflammatory activity in Wistar albino rat assessed as reduction in carrageenan-induced paw edema at 25 mg/kg, ip measured after 2 hrs by plethysmometric method (reference value: 1.58 +/- 0.21 ml). Format: functional.
Data set [3] deals with Rattus norvegicus. Put plainly: Antiinflammatory activity in Wistar albino rat assessed as reduction in carrageenan-induced paw edema at 25 mg/kg, ip measured after 3 hrs by plethysmometric method (reference value: 1.75 +/- 0.33 ml). Format: functional.
Data set [4] concerns Rattus norvegicus. Put plainly: Antiinflammatory activity in Wistar albino rat assessed as reduction in carrageenan-induced paw volume at 12.5 mg/kg, ip measured after 1 hr by plethysmometric method (reference value: 1.43 +/- 0.19 ml). The data set is classed as functional.
Data set [5] deals with Rattus norvegicus. Put plainly: Antiinflammatory activity in Wistar albino rat assessed as reduction in carrageenan-induced paw volume at 12.5 mg/kg, ip measured after 2 hrs by plethysmometric method (reference value: 1.58 +/- 0.21 ml). The data set is classed as functional.
The test system of data set [6] is Rattus norvegicus. Put plainly: Antiinflammatory activity in Wistar albino rat assessed as reduction in carrageenan-induced paw volume at 12.5 mg/kg, ip measured after 3 hrs by plethysmometric method (reference value: 1.75 +/- 0.33 ml). Format: functional.
For data set [7], the system named is Rattus norvegicus. As to the kind of experiment: Analgesic activity in Wistar albino rat assessed as reaction time at 25 mg/kg, ip measured after 30 mins for 15 secs by hot plate method (reference value: 4.21 +/- 0.41 sec). Format: functional.
For data set [8], the system named is Rattus norvegicus. Put plainly: Analgesic activity in Wistar albino rat assessed as reaction time at 25 mg/kg, ip measured after 60 mins for 15 secs by hot plate method (reference value: 4.67 +/- 0.52 sec). The data set is classed as functional. On the technique in general: Hot-plate and tail-flick tests time the reaction to a heat stimulus.
The test system of data set [9] is Rattus norvegicus. Put plainly: Analgesic activity in Wistar albino rat assessed as reaction time at 25 mg/kg, ip measured after 120 mins for 15 secs by hot plate method (reference value: 4.32 +/- 0.52 sec). The data set is classed as functional.
In data set [10] the test system is Rattus norvegicus. Put plainly: Analgesic activity in Wistar albino rat assessed as reaction time at 25 mg/kg, ip measured after 180 mins for 15 secs by hot plate method (reference value: 3.87 +/- 0.38 sec). Format: functional.
The test system of data set [11] is Rattus norvegicus. As to the kind of experiment: Analgesic activity in Wistar albino rat assessed as reaction time at 12.5 mg/kg, ip measured after 30 mins for 15 secs by hot plate method (reference value: 4.21 +/- 0.41 sec). The data set is classed as functional.
The subject of data set [12] is Rattus norvegicus. Put plainly: Analgesic activity in Wistar albino rat assessed as reaction time at 12.5 mg/kg, ip measured after 60 mins for 15 secs by hot plate method (reference value: 4.67 +/- 0.52 sec). The data set is classed as functional.
Data set [13] deals with Rattus norvegicus. As to the kind of experiment: Analgesic activity in Wistar albino rat assessed as reaction time at 12.5 mg/kg, ip measured after 120 mins for 15 secs by hot plate method (reference value: 4.32 +/- 0.52 sec). Format: functional.
For data set [14], the system named is Rattus norvegicus. As to the kind of experiment: Analgesic activity in Wistar albino rat assessed as reaction time at 12.5 mg/kg, ip measured after 180 mins for 15 secs by hot plate method (reference value: 3.87 +/- 0.38 sec). The data set is classed as functional.
Data set [15] concerns Rattus norvegicus. Put plainly: Antiinflammatory activity in Sprague-Dawley rat model of carrageenan-induced thermal hyperalgesia assessed as paw withdrawal latency time at 50 mg/kg, po administered 1 hr prior to carrageenan challenge and measured after 1 hr by planter test (reference value: 8.88 +/- 0.52 sec). Format: functional.
Data set [16] has as its system Rattus norvegicus. Put plainly: Antiinflammatory activity in Sprague-Dawley rat model of carrageenan-induced thermal hyperalgesia assessed as paw withdrawal latency time at 50 mg/kg, po administered 1 hr prior to carrageenan challenge and measured after 2 hrs by planter test (reference value: 6.17 +/- 0.58 sec). The data set is classed as functional.
The subject of data set [17] is Rattus norvegicus. Put plainly: Antiinflammatory activity in Sprague-Dawley rat model of carrageenan-induced thermal hyperalgesia assessed as paw withdrawal latency time at 50 mg/kg, po administered 1 hr prior to carrageenan challenge and measured after 3 hrs by planter test (reference value: 4.13 +/- 0.45 sec). Format: functional.
For data set [18], the system named is Rattus norvegicus. Put plainly: Antiinflammatory activity in Sprague-Dawley rat model of carrageenan-induced thermal hyperalgesia assessed as paw withdrawal latency time at 50 mg/kg, po administered 1 hr prior to carrageenan challenge and measured after 4 hrs by planter test (reference value: 5.47 +/- 0.84 sec). Format: functional.
In data set [19] the test system is Rattus norvegicus. As to the kind of experiment: Antiinflammatory activity in Sprague-Dawley rat model of carrageenan-induced thermal hyperalgesia assessed as paw withdrawal latency time at 50 mg/kg, po administered 1 hr prior to carrageenan challenge and measured after 5 hrs by planter test (reference value: 7.5 +/- 0.74 sec). Format: functional.
Data set [20] relates to Rattus norvegicus. Put plainly: Antiinflammatory activity in Sprague-Dawley rat model of carrageenan-induced thermal hyperalgesia assessed as paw withdrawal latency pressure at 50 mg/kg, po administered 1 hr prior to carrageenan challenge and measured after 1 hr by Von-frey test (reference value: 159.88 +/- 4.66 g). Format: functional.
For data set [21], the system named is Rattus norvegicus. Put plainly: Antiinflammatory activity in Sprague-Dawley rat model of carrageenan-induced thermal hyperalgesia assessed as paw withdrawal latency pressure at 50 mg/kg, po administered 1 hr prior to carrageenan challenge and measured after 2 hrs by Von-frey test (reference value: 146.47 +/- 5.12 g). The data set is classed as functional.
The test system of data set [22] is Rattus norvegicus. As to the kind of experiment: Antiinflammatory activity in Sprague-Dawley rat model of carrageenan-induced thermal hyperalgesia assessed as paw withdrawal latency pressure at 50 mg/kg, po administered 1 hr prior to carrageenan challenge and measured after 3 hrs by Von-frey test (reference value: 31.65 +/- 3.33 g). The data set is classed as functional.

Data set [23] relates to Rattus norvegicus. Put plainly: Antiinflammatory activity in Sprague-Dawley rat model of carrageenan-induced thermal hyperalgesia assessed as paw withdrawal latency pressure at 50 mg/kg, po administered 1 hr prior to carrageenan challenge and measured after 3 hrs by Von-frey test (reference value: 146.61 +/- 1.58 g). Format: functional.
Data set [24] has as its system Rattus norvegicus. Put plainly: Antiinflammatory activity in Sprague-Dawley rat model of carrageenan-induced thermal hyperalgesia assessed as paw withdrawal latency pressure at 50 mg/kg, po administered 1 hr prior to carrageenan challenge and measured after 5 hrs by Von-frey test (reference value: 169.58 +/- 4.26 g). Format: functional.
For data set [25], the system named is Rattus norvegicus. Put plainly: Antiinflammatory activity in Sprague-Dawley rat model of carrageenan-induced thermal hyperalgesia assessed as paw withdrawal latency pressure at 50 mg/kg, po administered 1 hr prior to carrageenan challenge and measured after 2 hrs by Randall-Selitto test (reference value: 231.13 +/- 3.15 g). Format: functional.
Data set [26] relates to Rattus norvegicus. As to the kind of experiment: Antiinflammatory activity in Sprague-Dawley rat model of carrageenan-induced thermal hyperalgesia assessed as paw withdrawal latency pressure at 50 mg/kg, po administered 1 hr prior to carrageenan challenge and measured after 3 hrs by Randall-Selitto test (reference value: 176.84 +/- 8.1 g). Format: functional.
In data set [27] the test system is Rattus norvegicus. Put plainly: Antiinflammatory activity in Sprague-Dawley rat model of carrageenan-induced thermal hyperalgesia assessed as paw withdrawal latency pressure at 50 mg/kg, po administered 1 hr prior to carrageenan challenge and measured after 3 hrs by Randall-Selitto test (reference value: […] g). Format: functional.
Data set [28] relates to Rattus norvegicus. As to the kind of experiment: Antiinflammatory activity in Sprague-Dawley rat model of carrageenan-induced thermal hyperalgesia assessed as paw withdrawal latency pressure at 50 mg/kg, po administered 1 hr prior to carrageenan challenge and measured after 1 hr by Randall-Selitto test (reference value: 246.55 +/- 1.05 g). Format: functional.
Data set [29] is described as follows: Ulcerogenicity in Sprague-Dawley rat assessed as formation of ulcer at 20 mg/kg, po after 1 hr by microscopic analysis. The data set is classed as toxicity, organism-based. Conditions: in vivo.

For `Cc1ccc(-c2cc(C(F)(F)F)nn2-c2ccc(S(N)(=O)=O)cc2)cc1` [CELECOXIB], the Activity in the data set on Rattus norvegicus [1] is 1.3 mL; in the data set with Rattus norvegicus [2], 1.23 mL; in the data set on Rattus norvegicus [3], 1.16 mL; in the data set with Rattus norvegicus [4] it was 1.34 mL; in the data set with Rattus norvegicus [5], 1.38 mL; in the data set with Rattus norvegicus [6], 1.36 mL. For the same compound, the Activity in the data set with Rattus norvegicus [20] turned out to be 176.45 g; with Rattus norvegicus [21] it was 176.63 g; in the data set on Rattus norvegicus [22], 176.87 g; in the data set with Rattus norvegicus [23] it was 176.87 g; in the data set with Rattus norvegicus [24], 180.82 g; in the data set with Rattus norvegicus [25], 273.46 g. For the same compound, the Activity came out at 270.66 g in the data set with Rattus norvegicus [26], 269.55 g with Rattus norvegicus [27] and 270.89 g in the data set on Rattus norvegicus [28]. Also, the Time was determined as 6.34 s in the data set on Rattus norvegicus [7]; 8.93 s with Rattus norvegicus [8]; 12.08 s in the data set on Rattus norvegicus [9]; 10.87 s with Rattus norvegicus [10]; 5.75 s with Rattus norvegicus [11]; 8.93 s in the data set with Rattus norvegicus [12]. Also, the Time in the data set on Rattus norvegicus [13] was determined as 10.98 s; in the data set with Rattus norvegicus [14], 9.92 s; with Rattus norvegicus [15] it was 11.54 s; with Rattus norvegicus [16] it was 10.98 s; in the data set with Rattus norvegicus [17], 9.48 s; in the data set on Rattus norvegicus [18] it was 8.36 s. In addition, in the data set with Rattus norvegicus [19], the Time is reported as 9.22 s.

As to `COc1ccc2c(c1)c(CC(=O)O)c(C)n2C(=O)c1ccc(Cl)cc1` [INDOMETHACIN], the Activity entry in data set [29] is on record as “Toxic”.
